Data from PubChem BioAssay (NCI).
Where “and” joins values, the source holds several entries; their conditions need not be identical. Identical values can stand only once.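 Five compound concentrations were applied to cells in 96-well plates for 48 hours; endpoints were derived by simple linear interpolation of the resulting dose-response curve. Here, GI50 denotes the concentration required for 50% inhibition of growth. The concentration for full growth arrest is given as TGI.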

How the values were obtained:
Assay in all cases: growth of human tumour cells (NCI), 48 h
LXFL 529 NSCLC = test system: LXFL 529 NSCLC
DLD-1 colon = test system: DLD-1 colon
HOP-18 NSCLC = test system: HOP-18 NSCLC
MDA-MB-231 breast = test system: MDA-MB-231 breast
HS 578T breast = test system: HS 578T breast
PC-3 prostate = test system: PC-3 prostate
T-47D breast = test system: T-47D breast
MDA-N = test system: MDA-N

Row | SMILES | TGI (LXFL 529 NSCLC) [µM] | TGI (DLD-1 colon) [µM] | TGI (HOP-18 NSCLC) [µM] | GI50 (MDA-MB-231 breast) | TGI (MDA-MB-231 breast) [µM] | GI50 (HS 578T breast) [µM] | TGI (HS 578T breast) [µM] | GI50 (PC-3 prostate) [µM] | TGI (PC-3 prostate) | TGI (T-47D breast) | TGI (MDA-N) [µM] | GI50 (T-47D breast) [µM] | GI50 (LXFL 529 NSCLC) [µM] | GI50 (DLD-1 colon) [µM] | GI50 (MDA-N) [µM]
1 | COc1cc2cnc3c4ccccc4ccc3c2cc1OC | > 100 | > 100 | – | – | – | – | – | – | – | – | – | – | – | – | –
2 | COc1cccc(/C=C2\CCC(C)(CN(C)C)C2=O)c1 (centres undefined) | – | > 100 | > 100 | – | – | – | – | – | – | – | – | – | – | – | –
3 | Cn1c(/C(C#N)=C/c2ccc3ccccc3c2)cc2ccccc21 | – | – | – | 0.46 µM | > 100 | 0.162 | > 100 | 0.22 | > 100 µM | > 100 µM | – | – | – | – | –
4 | C=CCO/N=C/c1cc(NC(=S)c2ccoc2C)ccc1Cl | – | – | – | – | 30.1 | – | 64.4 | – | 27.6 µM | 23.7 µM | 32.2 | – | – | – | –
5 | CC(=O)N[C@H](C(=O)N[C@@H](CCCNC(=N)N)C(=O)N[C@@H](CCCCN)C(=O)N[C@@H](CCCNC(=N)N)C(=O)N[C@]1(C)CCCCCC/C=C\CCC[C@@](C)(C(=O)N[C@@H](CCCNC(=N)N)C(=O)N[C@@H](CCC(=O)O)C(=O)N[C@@H](CC(C)C)C(=O)N[C@H](C(=O)N[C@@H](CCC(=O)O)C(N)=O)C(C)C)NC(=O)[C@H](CCC(N)=O)NC(=O)[C@H](CC(C)C)NC(=O)[C@H](CC(C)C)NC(=O)[C@H](CCCNC(=N)N)NC(=O)[C@H](CCCNC(=N)N)NC(=O)[C@H](CC(C)C)NC1=O)C(C)C | – | – | – | 3.68 µM | > 50 | 1.46 | 4.14 | 8.24 | 23.7 µM | 2.31 µM | – | 1.03 | – | – | –
6 | COC1OC(C)C(OCc2ccccc2)C(OS(=O)(=O)c2ccc(C)cc2)C1OS(=O)(=O)c1ccc(C)cc1 (centres undefined) | > 100 | > 100 | > 100 | – | – | – | – | – | – | – | – | – | – | – | –
7 | CC1(C)OC2COC3(CNO)OC(C)(C)OC3C2O1 (centres undefined) | – | > 100 | > 100 | – | – | – | – | – | – | – | – | – | – | – | –
8 | Cn1cc(-c2csc(-c3cn(C)c4ccccc34)n2)c2cnccc21 | – | – | – | 1.47 µM | 2.89 | 2.16 | 4.65 | 1.47 | 2.99 µM | – | – | – | – | – | –
9 | COCCOCCOCc1n(Cc2ccc3ccccc3n2)c2ccccc2[n+]1Cc1ccc2ccccc2c1 | – | – | – | 0.356 µM | 1.45 | 0.964 | 3.66 | 0.352 | 2.29 µM | 2.08 µM | – | 0.293 | – | – | –
10 | c1ccc(Cn2cnc3ccc(-c4nc(-c5ccc6c(c5)ncn6C5CCCCC5)cn5ccnc45)cc32)cc1 | – | – | – | – | – | 2.71 | > 100 | 1.97 | 7.55 µM | – | – | – | – | – | –
11 | C[C@H](Cn1ncnn1)Nc1ncc2cc(Oc3ccc(F)cc3F)c(=O)n(C)c2n1 | – | – | – | > 25 µM | > 25 | > 25 | > 25 | > 25 | > 25 µM | > 25 µM | – | > 25 | – | – | –
12 | CC(=O)OC1COC(n2c(=S)n(-c3ccccc3)c(=O)c3cc(Br)ccc32)C(OC(C)=O)C1OC(C)=O (centres undefined) | > 100 | – | > 100 | – | – | – | – | – | – | – | – | – | – | – | –
13 | CCOC1Oc2ccccc2-c2oc(=O)c(Sc3ccc(C)cc3)cc21 (centres undefined) | – | – | – | 16.9 µM | 67.7 | 34.5 | > 100 | 17.8 | > 100 µM | 56.4 µM | – | 1.63 | – | – | –
14 | Cc1cn(C2OC(C)(CO)C(O)C2O)c(=O)[nH]c1=O (centres undefined) | > 100 | > 100 | > 100 | – | – | – | – | – | – | – | – | – | – | – | –
15 | Cc1ccc2nc3c(Cl)c(C)c(=O)cc-3sc2c1 | > 100 | > 100 | – | – | – | – | – | – | – | – | – | – | 62.9 | 42.6 | –
16 | CC1(C)N=C(N)N=C(N)N1c1ccc(OCC(=O)Nc2ccccc2)c(Cl)c1 | – | – | – | > 100 µM | > 100 | > 100 | > 100 | 0.123 | > 66.5 µM | > 100 µM | – | > 65.8 | – | – | –
17 | O=C(c1ccc2ccccc2c1)c1c(C(F)(F)F)n([O-])c2ccc(Cl)cc2[n+]1=O | – | – | – | 1.59 µM | 3.21 | 1.79 | 3.72 | – | – | 1.78 µM | – | 0.453 | – | – | –
18 | c1ccc2nc3c(cc4ccccn43)nc2c1 | – | – | – | 29.8 µM | > 100 | 61.7 | > 100 | 63.7 | > 100 µM | > 100 µM | – | 88.1 | – | – | –
19 | O=C1C(SCCO)=C(SCCO)C(=O)c2ccccc21 | – | – | – | – | 4.15 | – | 4.99 | – | 6.1 µM | > 27.5 µM | 0.314 | – | – | – | –
20 | CCC1=C[C@@H]2CN(C1)Cc1c([nH]c3ccccc13)[C@@](C(=O)OC)(c1cc3c(cc1OC)N(C)[C@H]1[C@@](O)(C(=O)OC)[C@H](OC(C)=O)[C@]4(CC)[C@@H]5C[C@@H]5CN5CC[C@]31[C@@H]54)C2 | – | – | – | < 0.005 µM and 0.0335 µM | – | – | – | < 0.005 | 6.54 µM and 15 µM | 11.5 µM and 23.9 µM | – | – | – | – | –
21 | O=C1c2cccnc2-c2nc(-c3ccncc3)cc3c2c1nc1ccccc13 | – | – | – | 14.3 µM | 50.1 | 10.6 | 23.1 | 16.1 | 61.9 µM | > 100 µM | 35.9 | 44.9 | – | – | 19.9
22 | O=C1C=C(O)c2[nH]c(=O)ccc2C1=O | – | > 100 | – | – | – | – | – | – | – | – | – | – | – | – | –
23 | NC(=O)C1(N2CCCCC2)CCN(CCCC(=O)c2ccc(F)cc2)CC1 | – | – | – | 3.56 µM | > 71.8 | 2.37 | > 100 | 2.33 | > 100 µM | > 100 µM | – | > 100 | – | – | –
24 | C=C(CN1CCc2ccccc2C1)c1ccc(C(=O)Nc2ccccc2N)cc1 | – | – | – | 0.973 µM | 3.15 | 3.7 | 36.5 | 2.01 | > 50 µM | > 39 µM | – | > 15.8 | – | – | –
25 | Cc1cc(N(CCC#N)CCC#N)ccc1/C=C1N=C(/C=C/c2ccccc2)OC(=O)N\1 | > 100 | > 100 | – | – | – | – | – | – | – | – | – | – | – | – | –
26 | COc1ccccc1-c1cc(=O)c2ccc(C)nc2[nH]1 | – | – | – | – | > 100 | – | > 100 | > 100 | > 100 µM | > 100 µM | 41.5 | – | – | – | 20.1
27 | C[C@H]1[C@H](C)CC[C@]2(C(=O)NCCNCCN)CC[C@]3(C)C(=CC[C@@H]4[C@@]5(C)CCC(=O)C(C)(C)[C@@H]5CC[C@]43C)[C@H]12 | – | – | – | 1.66 µM | 3.08 | 1.7 | 3.74 | 1.74 | 3.81 µM | – | – | – | – | – | –
28 | Cn1c([N+](=O)[O-])cnc1/C=C1\Oc2cc(Cl)ccc2C1=O | – | – | – | 0.94 µM | > 28.5 | 1.69 | > 24.4 | 1.36 | > 24.1 µM | > 100 µM | – | 21.5 | – | – | –
29 | O=C(/C=C/c1ccccc1)CC(c1ccccc1)N1CCOCC1 (centres undefined) | – | – | – | 2.64 µM | 6.95 | 4.25 | 55 | 4.54 | 19.1 µM | 23.5 µM | – | 4.26 | – | – | –
30 | COc1ccc(/C=C2/CCc3cc4ccc(OC)cc4[o+]c32)c(O)c1 | – | – | – | 3.75 µM | 18.8 | 4.28 | 34.5 | 2.74 | 16.2 µM | 22.1 µM | – | 3.04 | – | – | –
